According to PMC11858854, “In Vitro and In Vivo Assessment of Pharmacokinetic Profile of Peramivir in the Context of Inhalation Therapy” (Pharmaceuticals, 2025):

What was measured:
[1] = system: NCI-H441 cell model; experiment: Bidirectional transport, NCI-H441 air-liquid culture model; type: in vitro ADME, human; details: NCI-H441, 2 μM
Experimental: NCI-H441 cells were cultured in RPMI-1640 medium (Gibco, Thermo, CA, USA) supplemented with 10% FBS and PS (100 U/mL) at 37 °C in a humidified 5% CO2 incubator, and the medium was changed every other day. […] Then, 850 μL of complete medium (containing 200 nM dexamethasone) was added to the basolateral chamber. […] Subsequently, an air-interfaced culture (AIC) was initiated by supplying 650 μL of culture medium to the basolateral chamber only. The culture medium was replaced every other day.
(§1) We removed the liquid from the apical and basolateral of the Transwell, rinsed the cells three times with a buffer containing HBSS, 10 mM Hepes, and 0.1% BSA (Buffer A), and then added Buffer A (100 µL for the apical side and 600 µL for the basolateral side) for pre-incubation for 30 min at 37 °C. For the transport studies in the apical to basolateral (A-B) direction, 100 μL of pre-warmed test solution (Buffer A containing 2 µM positive control drugs or peramivir) was added to the apical side, while 600 μL of pre-warmed assay buffer, a buffer containing HBSS, 10 mM Hepes, and 1% BSA (Buffer B), was added to the basolateral compartment.

[2] = target: human MDR1 (P-gp) (Homo sapiens, UniProt P08183); experiment: Permeability assay, LLC-PK1-MDR1 cells overexpressing P-gp
Experimental: When the cell transport system was mature in culture, experiments were performed. […] When assessing permeability in basolateral to apical (B-A) direction, 100 μL of pre-warmed Buffer B and 600 μL of pre-warmed test solutions were added to the apical and basolateral compartments, respectively. The Transwells® were placed in an incubator at 37 °C and 5% CO2 for a duration of 2 h. At the end of the incubation period, the samples in the apical and basolateral sides were collected separately and were briefly kept at a temperature of −40 °C for LC-MS/MS analysis. […] The cells were transferred to Transwell® plates (Corning, NY, USA) at a density of 2 × 10^4 cells/well with 200 μL of cell suspension per well, while 850 μL of complete medium was added to the basolateral chamber. […] The samples were collected separately and were briefly kept at a temperature of −40 °C for LC-MS/MS analysis.

[3] = system: A549 cells; experiment: Uptake study by A549 cells; type: in vitro ADME, human; details: 10 µM, 37 °C or 4 °C
Experimental: A549 cells were cultured in DMEM medium supplemented with 10% FBS and PS (100 U/mL) at 37 °C in a humidified 5% CO2 incubator. Cells were seeded on 24-well plates at a density of 3 × 10^4 cells/well. For the uptake assay, the DMEM media were removed, and the cells were washed with pre-warmed Hank’s buffer three times (1 mL/well). The third washing buffer was retained in the wells, and the plate was placed in an incubator at 37 °C or 4 °C for 30 min prior to the initiation of the uptake experiment. Following the removal of the washing buffer, 200 μL of pre-warmed test drug solution (Hank’s buffer containing the 10 µM peramivir) was added into each well, and the plates were incubated at 37 °C or 4 °C for 2, 5, and 15 min. Then the incubation solution was removed, and the cells were washed with ice-cold transportation buffer three times (1 mL/well). A total of 0.2 mL pure water was added to each well to lyse the cells by repeated freezing and thawing (−196 °C~37 °C, three times). The cell lysate was collected and stored at −40 °C for LC-MS/MS analysis and protein measurement.

[4] = system: Caco-2 cell model; parameters: method as in PMID 28000173; details: Caco-2, 10 μM; cited from earlier work
[5] = system: NCI-H441/dTHP co-culture model; experiment: Bidirectional transport, NCI-H441/dTHP co-culture model; type: in vitro ADME, human; details: NCI-H441/dTHP, 2 μM
Experimental: THP-1 cells were cultured in RPMI-1640 medium (Gibco, Thermo, CA, USA) supplemented with 10% FBS, PS (100 U/mL), and β-Mer (0.05 mM) at 37 °C in a humidified 5% CO2 incubator, and the medium was changed every other day. THP-1 cells were seeded at 4 × 10^5 cells/mL in six-well plates and induced for 48 h by adding medium containing a final concentration of 100 ng/mL PMA.
Then, the differentiated cells were seeded at 5 × 10^4 cells/well on the surface of NCI-H441 cells 10 days after air–liquid culture and continued to co-culture for 24 h.
as §1

[6] = target: T1, human OCTN1 (Homo sapiens, UniProt Q9H015); experiment: Uptake study, MDCK cells overexpressing OCTN1; type: in vitro ADME
T1 construct: Huidi Jiang, Zhejiang University; host or cells: MDCK (MDCK-OCTN1); control MDCK-MOCK
T1 sequence (Q9H015 1-551): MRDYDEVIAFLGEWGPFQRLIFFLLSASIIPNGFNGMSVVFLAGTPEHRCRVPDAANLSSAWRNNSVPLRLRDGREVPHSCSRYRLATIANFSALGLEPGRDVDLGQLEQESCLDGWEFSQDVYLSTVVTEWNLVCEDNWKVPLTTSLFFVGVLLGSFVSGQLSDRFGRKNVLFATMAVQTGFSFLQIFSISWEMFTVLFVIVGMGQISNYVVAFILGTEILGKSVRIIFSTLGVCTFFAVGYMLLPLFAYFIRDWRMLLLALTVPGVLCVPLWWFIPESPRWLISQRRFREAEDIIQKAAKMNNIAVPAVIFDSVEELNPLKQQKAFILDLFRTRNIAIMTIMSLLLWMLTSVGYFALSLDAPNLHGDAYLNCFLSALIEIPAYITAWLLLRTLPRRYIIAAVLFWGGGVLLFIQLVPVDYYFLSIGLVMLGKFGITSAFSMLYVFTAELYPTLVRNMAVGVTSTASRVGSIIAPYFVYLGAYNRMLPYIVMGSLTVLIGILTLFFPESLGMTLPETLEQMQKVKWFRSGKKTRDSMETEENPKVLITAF
Experimental: All cells (HEK293-MOCK, HEK293-OCT1, HEK293-OCT2, MDCK-MOCK, MDCK-OCTN1, and MDCK-OCTN2) were cultured in DMEM medium supplemented with 10% FBS and PS (100 U/mL), at 37 °C in a humidified 5% CO2 incubator. Cells were seeded on 24-well plates at a density of 1 × 10^4 cells/well. For the uptake assay, the DMEM media were removed, and the cells were washed with pre-warmed Hank’s buffer three times (1 mL/well). Subsequent addition of inhibitor-free/inhibitor-containing buffer was pre-incubated for 30 min at 37 °C prior to the initiation of the uptake experiment. After the pre-incubating buffer was removed, 200 μL of pre-warmed test drugs solution (Hank’s buffer containing 10 µM and 50 µM peramivir) or a mixture of test drugs and inhibitor was added into each well, and the plates were incubated at 37 °C for 5 min. At the end of incubation, cells were washed and lysed as described above. The cell lysate was collected and stored at −40 °C for LC-MS/MS analysis and protein measurement. The negative control (MOCK cells) and positive control were included simultaneously.

[7] = parameters: method as in PMID 15196586; details: cited from earlier work
[8] = system: Calu-3 cell model; experiment: Bidirectional transport, Calu-3 air-liquid culture model; details: Calu-3, 2 μM, Mean ± SD, n = 3
[9] = LLC-PK1-MDR1, 2 μM, Mean ± SD, n = 3

human MDR1 (P-gp), sequence (P08183 whole entry): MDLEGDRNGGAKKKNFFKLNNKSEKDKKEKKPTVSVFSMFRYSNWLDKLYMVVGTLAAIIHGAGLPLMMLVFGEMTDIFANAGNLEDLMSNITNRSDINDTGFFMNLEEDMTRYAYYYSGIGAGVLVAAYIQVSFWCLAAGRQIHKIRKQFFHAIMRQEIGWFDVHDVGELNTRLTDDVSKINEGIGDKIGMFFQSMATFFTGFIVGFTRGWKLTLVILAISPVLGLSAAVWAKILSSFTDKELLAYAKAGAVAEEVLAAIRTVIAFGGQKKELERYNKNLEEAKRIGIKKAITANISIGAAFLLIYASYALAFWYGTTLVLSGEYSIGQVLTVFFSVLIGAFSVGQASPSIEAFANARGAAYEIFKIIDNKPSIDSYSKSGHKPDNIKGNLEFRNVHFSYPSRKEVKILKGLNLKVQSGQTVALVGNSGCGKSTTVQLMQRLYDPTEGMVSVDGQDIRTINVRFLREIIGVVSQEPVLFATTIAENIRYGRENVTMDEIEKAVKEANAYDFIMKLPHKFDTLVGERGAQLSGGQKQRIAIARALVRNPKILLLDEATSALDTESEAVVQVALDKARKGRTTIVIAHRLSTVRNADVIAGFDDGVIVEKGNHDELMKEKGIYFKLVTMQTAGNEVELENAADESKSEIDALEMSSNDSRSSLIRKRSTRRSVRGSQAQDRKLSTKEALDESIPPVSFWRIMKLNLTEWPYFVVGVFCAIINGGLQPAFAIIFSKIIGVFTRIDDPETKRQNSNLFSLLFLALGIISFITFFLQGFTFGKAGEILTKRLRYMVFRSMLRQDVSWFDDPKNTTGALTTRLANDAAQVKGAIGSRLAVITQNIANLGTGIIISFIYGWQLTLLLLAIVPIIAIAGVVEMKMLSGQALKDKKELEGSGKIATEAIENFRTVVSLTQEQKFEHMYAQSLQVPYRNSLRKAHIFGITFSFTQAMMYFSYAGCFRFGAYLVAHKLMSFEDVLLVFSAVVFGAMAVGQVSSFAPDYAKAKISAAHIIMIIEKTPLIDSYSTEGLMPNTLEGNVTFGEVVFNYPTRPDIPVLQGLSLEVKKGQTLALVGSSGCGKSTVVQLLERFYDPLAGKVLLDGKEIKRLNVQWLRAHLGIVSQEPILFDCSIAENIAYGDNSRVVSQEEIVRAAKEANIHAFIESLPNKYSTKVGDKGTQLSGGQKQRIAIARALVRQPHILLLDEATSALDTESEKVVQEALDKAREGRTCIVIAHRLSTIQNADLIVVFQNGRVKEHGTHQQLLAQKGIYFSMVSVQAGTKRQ

CCC(CC)[C@H](NC(C)=O)[C@@H]1[C@H](O)[C@@H](C(=O)O)C[C@H]1N=C(N)N [Peramivir]
ER [1]: 1.11
Papp A-B ([1]; Mean ± SD, n = 3): 1.15 ± 0.16 ×10−6 cm/s
Papp B-A ([1]; Mean ± SD, n = 3): 1.28 ± 0.36 ×10−6 cm/s
Papp A-B [2, 9]: BLQ
Papp B-A [2, 9]: 0.23 ± 0.03 ×10−6 cm/s
P-gp transporter substrate status ([2]; Papp(B→A) LLC-PK1-MDR1 vs LLC-PK1-MOCK): not a substrate of the P-gp transporter
uptake rate in A549 cell model [3]: low
Papp [4]: 3.29 ± 0.739 × 10^−7 cm·s^−1
ER [5]: 0.75
Papp A-B ([5]; Mean ± SD, n = 3): 1.19 ± 0.16 ×10−6 cm/s
Papp B-A ([5]; Mean ± SD, n = 3): 0.9 ± 0.17 ×10−6 cm/s
OCTN1 substrate status ([6]; MDCK-OCTN1): does not conclusively establish peramivir as a substrate for OCTN1
transporter-mediated uptake ratio (UR value) ([6]; MDCK-OCTN1, 50 μM): 3.19
inhibition ratio (IR value) ([6]; MDCK-OCTN1, 50 μM, inhibitor quinidine (500 μM)): 40.22%
BDDCS category ([7]; high solubility/low metabolism): BDDCS-III
BCS category ([7]; high solubility/low permeability): BCS-III
Papp A-B [8]: BLQ
Papp B-A [8]: BLQ
